From patent publication US5459160A, “Iridoid derivatives and the use thereof as a drug” (Tsumura & Co., priority 1990, dated 1995)

What was measured:
Acute toxicity test = conditions: mouse, in vivo, ip; male S.P.P. mice, abdominally administered; Table 11
Experimental: The acute toxicity test was carried out by abdominally administering each test drug to male S.P.P. mice and determining an LD50 value.

bile secretion = test: Cholagogic action, bile secretion (Experimental Example 5); assay type: in vivo, male Wistar rats; conditions: intraduodenal
Experimental: After male Wistar rats 7 weeks old were fasted for 24 hours, they were anesthetized by the interperitoneal administration of 1.25 g/kg (volume 2 m.iota./kg) of urethane. A polyethylene canula (SP-10, a product of Natsume Seisakusho) was inserted into a bile duct and after the bile was caused to flow out for 30 minutes, the bile was collected in the cource of 1 hour. Thereafter, each test drug was suspended or dissolved in a 1% aqueous Tween-80 solution, and was administered into the duodenum at a rate of 5 m.iota./kg. Furthermore, the bile was collected every hour in the course of five hours, and its weight was measured. Only a 1% Tween-80 solution was given as a control.
The results are tabulated in Tables 6, 7, 8, 9 and 10, wherein the bile secretion amount every hour was represented by a percentage with the bile secretion amount (mg) one hour before the dose of the test drug being 100.

hyperlipemia = test: Anti-hyperlipemia test in rats on high fat food (Experimental Example 1); assay type: in vivo, Male Wistar rats; conditions: peroral once a day, two weeks, control 100, Table 1
Excerpt: Male Wistar rats 6.5 weeks old were allowed to freely intake a high fat food (containing 1% of cholesterol, 0.5% of sodium cholate, 12% of beef tallow and 20% of standard chow) in the cource of two weeks, to thus cause an outbreak of hyperlipemia. The dose of the drug was started simultaneously with the application of the high fat food, and was perorally given once a day through a stomach tube until the end of the experiment. The drugs were all suspended in a cane sugar fatty acid ester and were administered. The oily compounds were adjusted in advance to 100 mg/m.iota. by diethyl ether. A suitable amount was collected at the time of the dose and after diethyl ether was evaporated and removed, it was suspended in a cane sugar fatty acid ester (1% ryoto sugar ester) and then given. After the final dose of the drug, the rats were fasted for about 18 hours, and the blood was sampled to measure the blood serum lipid. The blood serum lipid was measured by using a TBA-380 biochemical analyzer (a product of Toshiba Medical Co.,) unless a particular hindrance occurred.

[1] = 0-1 hour after dose, control 81.1, Table 9
[2] = 1-2 hour after dose, control 66.6, Table 9
[3] = 2-3 hour after dose, control 55.8, Table 9
[4] = 3-4 hour after dose, control 49.0, Table 9
[5] = 4-5 hour after dose, control 42.8, Table 9

Compound | LD50 (Acute toxicity test) [mg/kg] | Bile secretion amount, percentage of the hour before dose (bile secretion; [1]) [%] | Bile secretion amount, percentage of the hour before dose (bile secretion; [2]) [%] | Bile secretion amount, percentage of the hour before dose (bile secretion; [3]) [%] | Bile secretion amount, percentage of the hour before dose (bile secretion; [4]) [%] | Bile secretion amount, percentage of the hour before dose (bile secretion; [5]) [%] | other results
COC(=O)C1=CO[C@@H](OC2CCCCO2)[C@@H]2C(CO)=CC[C@H]12 (single isomer, unassigned) [Definite Example 16] | 412 | – | – | – | – | – | –
COC(=O)C1=COC(=O)[C@H]2[C@@H]1CC[C@@H]2C [Definite Example 5, methyl (4aS, 7S, 7aR)-1,4a, 5,6,7,7a-hexahydro-7-methyl-1-oxocyclopenta[c]pyran-4-carboxylate] | – | 105.0 | 78.0 | 62.0 | 52.6 | 45.1 | –
COC(=O)C1=COC(O)[C@@H]2[C@@H](CO)CC[C@H]12 (stereo partly drawn) [Definite Example 6, methyl (4aS, 7S, 7aS)-1,4a, 5,6,7,7a-hexahydro-1-hydroxy-7-(hydroxymethyl)cyclopenta[c]pyran-4-carboxylate] | 406 | – | – | – | – | – | Blood serum cholesterol (%) (hyperlipemia; 10 mg/kg): 79.6%; Blood serum triglyceride (%) (hyperlipemia; 10 mg/kg): 86.7%; Blood serum cholesterol (%) (hyperlipemia; 30 mg/kg): 85.4%; Blood serum triglyceride (%) (hyperlipemia; 30 mg/kg): 80.4%; Bile secretion amount, percentage of the hour before dose (bile secretion; 0-1 hour after dose, control 84.1, Table 8): 111.4%; Bile secretion amount, percentage of the hour before dose (bile secretion; 1-2 hour after dose, control 72.5, Table 8): 78.0%; Bile secretion amount, percentage of the hour before dose (bile secretion; 2-3 hour after dose, control 63.8, Table 8): 66.7%; Bile secretion amount, percentage of the hour before dose (bile secretion; 3-4 hour after dose, control 56.7, Table 8): 55.2%; Bile secretion amount, percentage of the hour before dose (bile secretion; 4-5 hour after dose, control 51.2, Table 8): 50.3%
COC(=O)C1=CO[C@@H](O[C@@H]2O[C@H](COC(C)=O)[C@@H](OC(C)=O)[C@H](OC(C)=O)[C@H]2OC(C)=O)[C@@H]2C(C)=CC[C@H]12 [Definite Example 7, methyl (1S, 4aS, 7aS)-1-(2,3,4,6-tetra-O-acetyl-β-D-glucopyranosyloxy)-1,4a, 5,7a-tetrahydro-7-methylcyclopenta[c]pyran-4-carboxylate] | 382 | – | – | – | – | – | Blood serum cholesterol (%) (hyperlipemia; 10 mg/kg): 94.4%; Blood serum triglyceride (%) (hyperlipemia; 10 mg/kg): 96.9%; Blood serum cholesterol (%) (hyperlipemia; 30 mg/kg): 105%; Blood serum triglyceride (%) (hyperlipemia; 30 mg/kg): 64.6%
COC(=O)C1=CO[C@@H](O[C@@H]2O[C@H](CO)[C@@H](O)[C@H](O)[C@H]2O)[C@@H]2C(C)=CC[C@H]12 [Definite Example 8, methyl (1S, 4aS, 7aS)-1-(β-D-glucopyranosyloxy)-1,4a, 5,7a-tetrahydro-7-methylcyclopenta[c]pyran-4-carboxylate] | – | 85.0 | 71.7 | 60.1 | 50.6 | 44.4 | Blood serum cholesterol (%) (hyperlipemia; 10 mg/kg): 94.4%; Blood serum triglyceride (%) (hyperlipemia; 10 mg/kg): 82.5%; Blood serum cholesterol (%) (hyperlipemia; 30 mg/kg): 54.8%; Blood serum triglyceride (%) (hyperlipemia; 30 mg/kg): 68.7%
COC(=O)C1=COC2OCC3CCC1C32 [Definite Example 12, methyl (iS, 4aS, 7R, 7aS)-1,7-(epoxymethano)-1,4a, 5,6,7,7a-hexahydrocyclopenta[c]pyran-4-carboxylate] | 527 | – | – | – | – | – | –
OCC1=CC[C@@H]2C(CO)=CO[C@@H](OC3CCCCO3)[C@H]12 (stereo partly drawn) [Definite Example 17, (1S, 4aS, 7aS)-4,7-bis (hydroxymethyl)-1,4a, 5,7a-tetrahydro-1-(2-tetrahydropyranyloxy)cyclopenta[c]pyran] | – | – | – | – | – | – | Bile secretion amount, percentage of the hour before dose (bile secretion; 0-1 hour after dose, control 82.9, Table 10): 115.7%; Bile secretion amount, percentage of the hour before dose (bile secretion; 1-2 hour after dose, control 74.1, Table 10): 77.3%; Bile secretion amount, percentage of the hour before dose (bile secretion; 2-3 hour after dose, control 66.1, Table 10): 62.9%; Bile secretion amount, percentage of the hour before dose (bile secretion; 3-4 hour after dose, control 59.8, Table 10): 54.0%; Bile secretion amount, percentage of the hour before dose (bile secretion; 4-5 hour after dose, control 53.3, Table 10): 47.2%
OCC1=CC[C@@H]2C(CO)=CO[C@@H](OC3CCCCO3)[C@H]12 (stereo partly drawn) [Definite Example 18, (1S, 4aS, 7aS)-4,7-bis(hydroxymethyl)-1,4a, 5,7a-tetrahydro-1-(2-tetrahydropyranyloxy)cyclopenta[c]pyran] | 559 | 91.3 | 74.6 | 60.3 | 51.1 | 44.1 | –
COC(=O)C1=COC(=O)[C@@H]2C(CO[Si](C)(C)C(C)(C)C)=CC[C@H]12 [Definite Example 19] | 355 | – | – | – | – | – | –
COC(=O)C1=COC(=O)[C@@H]2C(CO)=CC[C@H]12 [Definite Example 20, methyl (4aS, 7aS)-1,4a, 5,7a-tetrahydro-7-(hydroxymethyl)-1-oxocyclopenta[c]pyran-4-carboxylate] | – | 82.6 | 66.8 | 55.1 | 48.6 | 42.8 | –
COC(=O)C1=COC(=O)[C@@H]2C(CO[Si](c3ccccc3)(c3ccccc3)C(C)(C)C)=CC[C@H]12 [Definite Example 28, methyl (4aS, 7aS)-7-[(tert-butyldiphenylsilyloxy)methyl]-1,4a, 5,7a-tetrahydro-1-oxocyclopenta[c]pyran-4-carboxylate] | 406 | – | – | – | – | – | –
CC(C)(C)[Si](C)(C)OCC1=CC[C@@H]2C(CO)=CO[C@@H](O[Si](C)(C)C(C)(C)C)[C@H]12 [Definite Example 34, (1S, 4aS, 7aS)-1-(tert-butyldimethylsilyloxy)-7-[(tert-butyldimethylsilyloxy)methyl]-1,4a, 5,7a-tetrahydro-4-(hydroxymethyl)cyclopenta[c]pyran] | 511 | – | – | – | – | – | –
COC(=O)C1=COC(O)[C@H]2[C@@H]1CC1OC12C (stereo partly drawn) [Definite Example 35, methyl (4aS, 7aS)-6,7-epoxy-1,4a,5,6,7,7a-hexahydro-1-hydroxy-7-methylcyclopenta[c]pyran-4-carboxylate] | – | – | – | – | – | – | Bile secretion amount, percentage of the hour before dose (bile secretion; 0-1 hour after dose, control 87.7, Table 7): 110.4%; Bile secretion amount, percentage of the hour before dose (bile secretion; 1-2 hour after dose, control 75.3, Table 7): 85.2%; Bile secretion amount, percentage of the hour before dose (bile secretion; 2-3 hour after dose, control 65.0, Table 7): 71.4%; Bile secretion amount, percentage of the hour before dose (bile secretion; 3-4 hour after dose, control 58.7, Table 7): 61.1%; Bile secretion amount, percentage of the hour before dose (bile secretion; 4-5 hour after dose, control 51.8, Table 7): 53.5%
